Measurements reported in patent US7612087B2, “Heterocyclic compounds as inhibitors of beta-lactamases” (Novexel, priority 2002, dated 2009).
Counter-ions that a name gives are not always drawn.

Tests used:
[1] = biological target: T1, β-lactamase P99 (Enterobacter cloacae, UniProt P05364); assay: biochemical; details: 100 μM Nitrocefin, 50 mM sodium phosphate buffer pH7.0, 37° C.; read-out: IC50 nM/P99
T1 construct: The β-lactamases are isolated from bacterial strains which are resistant to penicillins and cephalosporins; endogenous in cells; host or cells: Enterobacter cloacae 293HT6 (natural producer; French-press lysate, 100,000 g supernatant)
T1 sequence (P05364 21-381): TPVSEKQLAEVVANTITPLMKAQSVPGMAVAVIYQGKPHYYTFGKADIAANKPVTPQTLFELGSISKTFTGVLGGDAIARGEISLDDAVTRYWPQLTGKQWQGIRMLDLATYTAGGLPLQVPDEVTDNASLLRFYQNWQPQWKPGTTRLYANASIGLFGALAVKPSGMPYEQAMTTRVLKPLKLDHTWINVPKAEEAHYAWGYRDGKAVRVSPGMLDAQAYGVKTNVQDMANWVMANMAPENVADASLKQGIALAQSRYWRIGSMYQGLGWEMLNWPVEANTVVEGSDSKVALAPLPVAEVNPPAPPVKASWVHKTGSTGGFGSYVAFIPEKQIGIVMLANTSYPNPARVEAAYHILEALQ
Description: (§1) A. Preparation of the β-lactamases Tem-1 and P99
(§2) The β-lactamases are isolated from bacterial strains which are resistant to penicillins and cephalosporins (Tem1 and P99 are produced by E.coli 250HT21 and E.Cloacae 293HT6 respectively).
(§3) The bacteria are cultured at 37° C. in heart-brain culture at 37 g/l (DIFCO). They are harvested at the end of the exponential phase, cooled down and centrifuged. The bacterial pellets are taken up in sodium phosphate buffer 50 mM, pH 7.0 and centrifuged again. The bacteria are taken up in two volumes of the same buffer and lyzed using a French-Press maintained at 4° C. After centrifugation for 1 hour at 100,000 g, at 4° C., the supernatants containing the soluble fraction of the bacterial extracts are recovered and frozen at −80° C.
(§4) The method uses Nitrocefin (OXOID), cephalosporin chromogene as substrate, of which the product hydrolyzed by the B-lactamases is red and absorbs at 485 nm. Beta-lactamase activity is determined kinetically by measurement of the absorbance variation at 485 nm resulting from the hydrolysis of the substrate using a plate spectrophotometer (Spectra Max More Molecular Devices). The experiments are carried out at 37° C. The quantity of enzyme was normalized and the measurements are carried out at initial speed.
(§5) Two measurements were carried out, without preincubation and with preincubation of the enzyme and inhibitor (5 mn), in order to test the irreversibility of the reaction. The products are tested at 6 or 8 concentrations in duplicate. The reaction mixture contains 100 μM of Nitrocefin and 50 mM sodium phosphate buffer pH7.0.
(§6) The hydrolysis speeds are measured with and without inhibitor. The concentration of inhibitor which inhibits by 50% the hydrolysis reaction of Nitrocefin by the enzyme (CI50) is determined. The data is processed using GraFit software (Erathycus Software).

[2] = biological target: T2, β-lactamase TEM1 (Escherichia coli, UniProt P62593); assay: Inhibition of isolated β-lactamase Tem-1 (Nitrocefin hydrolysis); format: biochemical, E.coli 250HT21; details: 100 μM Nitrocefin, 50 mM sodium phosphate buffer pH7.0, 37° C.
T2 construct: The β-lactamases are isolated from bacterial strains which are resistant to penicillins and cephalosporins; endogenous in cells; host or cells: E. coli 250HT21 (natural producer; French-press lysate, 100,000 g supernatant)
T2 sequence (P62593 24-286 limits assumed): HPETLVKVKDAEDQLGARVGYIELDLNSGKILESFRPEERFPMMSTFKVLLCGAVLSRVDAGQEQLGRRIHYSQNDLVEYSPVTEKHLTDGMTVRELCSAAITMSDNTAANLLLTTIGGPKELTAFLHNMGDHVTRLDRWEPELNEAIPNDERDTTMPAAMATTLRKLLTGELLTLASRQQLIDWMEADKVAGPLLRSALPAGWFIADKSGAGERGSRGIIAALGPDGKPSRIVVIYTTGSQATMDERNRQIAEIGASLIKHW
Description: as §1, §2, §3, §4, §5, §6

What does the source list for “6-benzoyl—N—[methyl(phenylmethyl)]-7-oxo-1,6-diazabicyclo[3.2.1]octane-2-carboxamide [Example 29e]”?
IC50 [1]: 6300 nM; IC50 [2]: 4200 nM

What does the source list for O=C(O)CC[C@@H]1CCN2C[C@H]1OC2=O (relative stereo) [Example 1a, cis-7-oxo-6-oxa-1-azabicyclo[3.2.1]octane-4-propanoic acid]?
IC50 [1]: > 10000 nM; IC50 [2]: 700 nM

With O=C(C[C@@H]1CCN2C[C@@H]1OC2=O)OC(c1ccccc1)c1ccccc1 (relative stereo) [Example 2, Trans diphenylmethyl 7-oxo-6-oxa-1-azabicyclo[3.2.1]octan-4-acetate] as the compound, how does the IC50 [2] read?
The IC50 was 462 nM.

Which IC50 [2] does the source give for O=C(O)C[C@@H]1CCN2C[C@@H]1OC2=O (relative stereo) [Example 2a, trans-7-oxo-6-oxa-1-azabicyclo[3.2.1]octan-4-acetic acid] here?
Its IC50 is 6730 nM.

Which IC50 [1] does the source give for O=C(C[C@@H]1CCN2C[C@H]1OC2=O)OC(c1ccccc1)c1ccccc1 (relative stereo) [Example 3, cis diphenylmethyl 7-oxo-6-oxa-1-azabicyclo[3.2.1]octan-4-acetate] here?
The IC50 was 9800 nM.

What about the IC50 [2] of the same compound?
The IC50 was 590 nM.

O=C(O)C[C@@H]1CCN2C[C@H]1OC2=O (relative stereo) [Example 3a, cis-7-oxo-6-oxa-1-azabicyclo[3.2.1]octan-4-acetic acid] was tested. Which IC50 [2] did it give?
The IC50 was 4400 nM.

With COC(=O)C[C@@H]1CCN2C[C@H]1OC2=O (relative stereo) [Example 3b, cis methyl 7-oxo-6-oxa-1-azabicyclo[3.2.1]octan-4-acetate] as the compound, how does the IC50 [2] read?
The IC50 was 2010 nM.

How did the IC50 [2] turn out when N#CC[C@@H]1CCN2C[C@H]1OC2=O (relative stereo) [Example 4, cis-7-oxo-6-oxa-1-azabicyclo[3.2.1]octan-4-acetonitrile] was run?
The IC50 was 2710 nM.

What does the source list for O=C(OCc1ccccc1)[C@H]1C[C@@H]2CN1C(=O)N2C(=O)c1ccccc1 (relative stereo) [Example 7a, trans phenylmethyl 3-benzoyl-2-oxo-1,3-diazabicyclo[2.2.1]heptane-6-carboxylate]?
IC50 [1]: 17 nM; IC50 [2]: 55 nM

With O=C(OCc1ccccc1)[C@H]1C[C@@H]2CN1C(=O)N2S(=O)(=O)c1ccccc1 (relative stereo) [Example 8, trans phenylmethyl 2-oxo-3-(phenylsulphonyl)-1,3-diazabicyclo[2.2.1]heptane-6-carboxylate] as the compound, how does the IC50 [1] read?
Its IC50 is 62 nM.

And the IC50 [2]?
Its IC50 is 1400 nM.

C[C@@]12C[C@H](C(=O)OCc3ccccc3)N(C1)C(=O)N2C(=O)c1ccccc1 (relative stereo) [Example 9, trans phenylmethyl 3-benzoyl-4-methyl-2-oxo-1,3-diazabicyclo[2.2.1]heptane-6-carboxylate] was tested. Which IC50 [1] did it give?
The IC50 was 630 nM.

And the IC50 [2]?
Its IC50 is 8500 nM.

O=C(OCc1ccccc1)[C@@H]1C[C@@H]2CN1C(=O)N2OS(=O)(=O)O (relative stereo) [Example 10, 1-propenyltriphenylphosphonium salt of trans phenylmethyl 2-oxo-3-(sulphooxy)-1,3-diazabicyclo[2.2.1]heptane-6-carboxylate] was tested. Which IC50 [1] did it give?
The IC50 was 1.5 nM.

And the IC50 [2]?
The IC50 was 0.26 nM.

COC(=O)[C@@H]1CC[C@@H]2CN1C(=O)O2 (relative stereo) [Example 26c, trans methyl 7-oxo-6-oxa-1-azabicyclo[3.2.1]octane-2-carboxylate] was tested. Which IC50 [1] did it give?
The IC50 was 7000 nM.

What about the IC50 [2] of the same compound?
The IC50 was 1100 nM.

For O=C(NCc1ccccc1)[C@@H]1CC[C@@H]2CN1C(=O)N2C(=O)c1ccccc1 (relative stereo) [Example 29d, trans-6-benzoyl-7-oxo-N-(phenylmethyl)-1,6-diazabicyclo[3.2.1]octane-2-carboxamide], which IC50 [1] is on record?
Its IC50 is 2000 nM.

What about the IC50 [2] of the same compound?
The IC50 was 9500 nM.

How did the IC50 [2] turn out when O=C(c1ccccc1)N1C(=O)N2CCC1C2 (centres unmarked) [Example 5, 3-benzoyl-1,3-diazabicyclo[2.2.1]heptan-2-one] was run?
Its IC50 is 1010 nM.

Which IC50 [2] does the source give for O=C(c1ccccc1)N1C(=O)N2CCCC1C2 (centres unmarked) [Example 14, 6-benzoyl-1,6-diazabicyclo[3.2.1]octan-7-one] here?
Its IC50 is 6400 nM.

How did the IC50 [2] turn out when Cc1ccc(S(=O)(=O)ON2C(=O)N3CCCC2C3)cc1 (centres unmarked) [Example 19e, 6-[[(4-methylphenyl)sulphonyl]oxy]-1,6-diazabicyclo[3.2.1]octan-7-one] was run?
The IC50 was 11 nM.

How did the IC50 [2] turn out when CS(=O)(=O)ON1C(=O)N2CCCC1C2 (centres unmarked) [Example 19f, 6-[(methylsulphonyl)oxy]-1,6-diazabicyclo[3.2.1]octan-7-one] was run?
The IC50 was 110 nM.

How did the IC50 [2] turn out when O=C1N2CCCC(C2)N1OS(=O)(=O)c1ccc([N+](=O)[O-])cc1 (centres unmarked) [Example 19g] was run?
Its IC50 is 29 nM.

With O=C1OC2C=CCN1C2 (centres unmarked) [Example 22, 6-oxa-1-azabicyclo[3.2.1]oct-3-en-7-one] as the compound, how does the IC50 [2] read?
Its IC50 is 5100 nM.

With O=C(O)C1CCC2CN1C(=O)O2 (stereo not drawn) [Example 26b, trans-7-oxo-6-oxa-1-azabicyclo[3.2.1.]octane-2 carboxylic acid] as the compound, how does the IC50 [2] read?
The IC50 was 4900 nM.

For O=C(OCc1ccccc1)C1CCC2CN1C(=O)N2OS(=O)(=O)O (stereo not drawn) [Example 28b, Sodium salt of trans phenylmethyl 7-oxo-6-(sulphooxy)-1,6-diazabicyclo[3.2.1]octane-2-carboxylate], which IC50 [1] is on record?
The IC50 was 12 nM.

What about the IC50 [2] of the same compound?
The IC50 was 9.5 nM.

What does the source list for O=C(OCc1ccccc1)C1CCC2CN1C(=O)N2OS(=O)(=O)c1cccs1 (stereo not drawn) [Example 28d, trans pheylmethyl 7-oxo-6-[(2-thienylsulphonyl)oxy]-1,6-diazabicyclo[3.2.1]octane-2-carboxylate]?
IC50 [1]: 390 nM; IC50 [2]: 1.3 nM

With O=C(O)C1CCC2CN1C(=O)N2C(=O)c1ccccc1 (stereo not drawn) [Example 29b, trans-6-benzoyl-7-oxo-1,6-iazabicyclo[3.2.1]octane-2-carboxylic acid] as the compound, how does the IC50 [1] read?
The IC50 was 4200 nM.

And the IC50 [2]?
Its IC50 is 460 nM.

Which IC50 [2] does the source give for O=C(c1ccccc1)N1C(=O)N2CC1CCC2CO (centres unmarked) [Example 29f, 6-benzoyl-2-(hydroxymethyl)-1,6-diazabicyclo[3.2.1]octan-7-one] here?
The IC50 was 5200 nM.

With C=CCOC(=O)N1C(=O)N2CC1CCC2C(=O)OCc1ccc([N+](=O)[O-])cc1 (stereo not drawn) [Example 31, trans (4-nitrophenyl)methyl and 2-propenyl 7-oxo-1,6-diazabicyclo[3.2.1]octane-2,6-dicarboxylate] as the compound, how does the IC50 [2] read?
Its IC50 is 5700 nM.

With COC1=CC2CN(C1)C(=O)N2OS(=O)(=O)O (centres unmarked) [Example 52, Sodium salt of 3-methoxy-6-(sulphooxy)-1,6-diazabicyclo[3.2.1]oct-3-in-7-one] as the compound, how does the IC50 [1] read?
Its IC50 is 4600 nM.

What about the IC50 [2] of the same compound?
Its IC50 is 11 nM.

O=C1N2CC=CC(C2)N1OS(=O)(=O)O (centres unmarked) [Example 53, Sodium salt of 6-(sulphooxy)-1,6-diazabicyclo[3.2.1]oct-3-in-7-one] was tested. Which IC50 [1] did it give?
Its IC50 is 5900 nM.

What about the IC50 [2] of the same compound?
Its IC50 is 15 nM.

O=C1N2CCCC(C2)N1OS(=O)(=O)O (centres unmarked) [Example 54, Sodium salt of 6-(sulphooxy)-1,6-diazabicyclo[3.2.1]octan-7-one] was tested. Which IC50 [2] did it give?
Its IC50 is 3100 nM.

With “trans phenylmethyl 6-(2-hydroxy-2-oxoethoxy)-7-oxo-1,6-diazabicyclo[3.2.1]octane-2-carboxylate [Example 28e]” as the compound, how does the IC50 [2] read?
Its IC50 is 52 nM.
